Measurements: patent US20090076152A1, “Novel Compounds Active as Muscarinic Receptor Antagonists” (priority 2007, published 2009)
pKi: −log10 of the molar value.

Target: T1, human muscarinic M3 receptor (Homo sapiens, UniProt P20309)
T1 construct: expressed in transfected cells
Experiment: hM3 β-Lac potency assay (NFAT-Betalactamase reporter in CHO-K1 cells)
Details: CHO cells recombinantly expressing human M3, NFAT β-lactamase reporter; inhibition of 80 nM carbamyl choline signal, 4 h; IC50 converted to Ki by Cheng-Prusoff; read-out: Cell based β-lactamase M3 Ki
Experimental: M3 potency was determined in CHO-K1 cells transfected with the NFAT-Betalactamase gene. CHO (Chinese Hamster Ovary) cells recombinantly expressing the human muscarinic M3 receptor were transfected with the NFAT_β-Lac_Zeo plasmid. Cells were grown in DMEM with Glutamax-1, supplemented with 25 mM HEPES(Life Technologies 32430-027), containing 10% FCS (Foetal Calf Serum; Sigma F-7524), […] Sodium pyruvate (Sigma S-8636), NEM (non-Essential Amino Acids; Invitrogen 11140-035) and 200 μg/ml Zeocin (Invitrogen R250-01).
Cells were harvested for assay when they reached 80-90% confluency using enzyme free cell Dissociation Solution (Life technologies 13151-014) incubated with the cells for 5 min at 37° C. in an atmosphere containing 5% CO2. Detached cells were collected in warmed growth media and centrifuged at 2000 rpm for 10 min, washed in PBS (Phosphate Buffered Saline; Life Technologies 14190-094) and centrifuged again as just described. The cells were re-suspended at 2×10^5 cells/ml in growth medium (composition as described above). 20 μl of this cell suspension was added to each well of a 384 well black clear bottomed plate (Greiner Bio One 781091-PFI). The assay buffer used was PBS supplemented with 0.05% Pluronic F-127 (Sigma 9003-11-6) and 2.5% DMSO. Muscarinic M3 receptor signalling was stimulated using 80 nM carbamyl choline (Aldrich N240-9) incubated with the cells for 4 h at 37° C./5% CO2 and monitored at the end of the incubation period using a Tecan SpectraFluor+ plate reader (λ—excitation 405 nm, emission 450 nm and 503 nm). M3 receptor antagonists under test were added to the assay at the beginning of the 4 h incubation period and compound activity measured as the concentration dependent inhibition of the carbamyl choline induced signal. Inhibition curves were plotted and IC50 values generated using a 4-parameter sigmoid fit and converted to Ki values using the Cheng-Prusoff correction and the KD value for carbamyl choline in the assay.

T1 sequence (P20309 whole entry): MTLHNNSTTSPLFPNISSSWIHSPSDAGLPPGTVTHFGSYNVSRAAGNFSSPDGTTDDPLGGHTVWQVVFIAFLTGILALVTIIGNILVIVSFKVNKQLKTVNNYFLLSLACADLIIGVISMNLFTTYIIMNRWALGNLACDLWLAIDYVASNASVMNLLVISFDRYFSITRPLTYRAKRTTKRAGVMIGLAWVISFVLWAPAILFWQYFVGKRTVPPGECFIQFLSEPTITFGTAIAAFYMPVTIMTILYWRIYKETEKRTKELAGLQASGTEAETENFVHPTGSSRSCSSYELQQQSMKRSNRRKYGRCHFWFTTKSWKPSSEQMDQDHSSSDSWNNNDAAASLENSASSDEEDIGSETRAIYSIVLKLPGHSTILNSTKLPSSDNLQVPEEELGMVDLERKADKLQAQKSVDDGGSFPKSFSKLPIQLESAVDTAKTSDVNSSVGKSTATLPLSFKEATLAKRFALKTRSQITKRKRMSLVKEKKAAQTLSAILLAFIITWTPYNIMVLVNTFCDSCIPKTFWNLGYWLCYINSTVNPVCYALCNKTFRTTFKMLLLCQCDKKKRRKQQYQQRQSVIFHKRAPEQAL

Compound	pKi
CC(C)N(CC[C@H](c1ccccc1)c1cc(CCOc2ccc(CCNC(=O)Cc3ccc(O)c(Cl)c3)cc2)ccc1O)C(C)C [Example 2, 2-(3-Chloro-4-hydroxy-phenyl)-N-[2-(4-{2-[3-((1R)-3-diisopropylamino-1-phenyl-propyl)-4-hydroxy-phenyl]-ethoxy}-phenyl)-ethyl]-acetamide]	8.77
CC(C)N(CC[C@H](c1ccccc1)c1cc(CCOc2ccc(CCNC(=O)C3CCCC3)cc2)ccc1O)C(C)C [Example 3, Cyclopentanecarboxylic acid [2-(4-{2-[3-((1R)-3-diisopropylamino-1-phenyl-propyl)-4-hydroxy-phenyl]-ethoxy}-phenyl)-ethyl]-amide]	8.44
CC(C)N(CC[C@H](c1ccccc1)c1cc(CCOc2ccc(CCNC(=O)CC3CC3)cc2)ccc1O)C(C)C [Example 4]	8.92
CC(C)N(CC[C@H](c1ccccc1)c1cc(CCOc2ccc(CCNC(=O)c3ccc(O)c(F)c3)cc2)ccc1O)C(C)C [Example 5, N-[2-(4-{2-[3-((1R)-3-Diisopropylamino-1-phenyl-propyl)-4-hydroxy-phenyl]-ethoxy}-phenyl)-ethyl]-3-fluoro-4-hydroxy-benzamide]	8.27
CC(C)N(CC[C@H](c1ccccc1)c1cc(CCOc2ccc(CCNC(=O)[C@]34C[C@H]5C[C@H](C[C@H](C5)C3)C4)cc2)ccc1O)C(C)C [Example 6, (3S,5S,7S)-N-{2-[4-(2-{3-[(1R)-3-(diisopropylamino)-1-phenylpropyl]-4-hydroxyphenyl}ethoxy)phenyl]ethyl}adamantane-1-carboxamide]	8.30
CC(C)N(CC[C@H](c1ccccc1)c1cc(CCOc2ccc(CCNCc3ccccc3)cc2)ccc1O)C(C)C [Example 9, 4-{2-[4-(2-Benzylamino-ethyl)-phenoxy]-ethyl}-2-((1R)-3-diisopropylamino-1-phenyl-propyl)-phenol]	9.11
CC(C)N(CC[C@H](c1ccccc1)c1cc(CCOc2ccc(CCNCc3cccc(Cl)c3)cc2)ccc1O)C(C)C [Example 10, 4-(2-{4-[2-(3-Chloro-benzylamino)-ethyl]-phenoxy}-ethyl)-2-((1R)-3-diisopropylamino-1-phenyl-propyl)-phenol]	8.11
CC(C)N(CC[C@H](c1ccccc1)c1cc(CCOc2ccc(CCNCc3ccc(O)c(F)c3)cc2)ccc1O)C(C)C [Example 13, 2-[(1R)-3-(diisopropylamino)-1-phenylpropyl]-4-[2-(4-{2-[(3-fluoro-4-hydroxybenzyl)amino]ethyl}phenoxy)ethyl]phenol]	< 7.92
CC(C)N(CC[C@H](c1ccccc1)c1cc(CCOc2ccc(CCNCc3cccc(F)c3O)cc2)ccc1O)C(C)C [Example 14, 2-[(1R)-3-(diisopropylamino)-1-phenylpropyl]-4-[2-(4-{2-[(3-fluoro-2-hydroxybenzyl)amino]ethyl}phenoxy)ethyl]phenol]	8.85
CC(C)N(CC[C@H](c1ccccc1)c1cc(CCOc2ccc(CCNCc3cc(Cl)c(O)c(Cl)c3)cc2)ccc1O)C(C)C [Example 16, 2,6-Dichloro-4-{[2-(4-{2-[3-((1R)-3-diisopropylamino-1-phenyl-propyl)-4-hydroxy-phenyl]-ethoxy}-phenyl)-ethylamino]-methyl}-phenol]	< 8.16
CC(C)N(CC[C@H](c1ccccc1)c1cc(CCOc2ccc(CCNCc3cccc(O)c3Cl)cc2)ccc1O)C(C)C [Example 17, 2-chloro-3-[({2-[4-(2-{3-[(1R)-3-(diisopropylamino)-1-phenylpropyl]-4-hydroxyphenyl}ethoxy)phenyl]ethyl}amino)methyl]phenol]	9.00
CC(C)N(CC[C@H](c1ccccc1)c1cc(CCOc2ccc(CCNCc3cccc(O)c3)cc2)ccc1O)C(C)C [Example 18, 2-((1R)-3-Diisopropylamino-1-phenyl-propyl)-4-(2-{4-[2-(3-hydroxy-benzylamino)-ethyl]-phenoxy}-ethyl)-phenol]	< 7.98
CC(C)N(CC[C@H](c1ccccc1)c1cc(CCOc2ccc(CCNCc3cccc(O)c3F)cc2)ccc1O)C(C)C [Example 19, 3-[({2-[4-(2-{3-[(1R)-3-(diisopropylamino)-1-phenylpropyl]-4-hydroxyphenyl}ethoxy)phenyl]ethyl}amino)methyl]-2-fluorophenol]	8.57
CC(C)N(CC[C@H](c1ccccc1)c1cc(CCOc2ccc(CCNCc3cc(F)c(O)c(Cl)c3)cc2)ccc1O)C(C)C [Example 20, 2-Chloro-4-{[2-(4-{2-[3-((1R)-3-diisopropylamino-1-phenyl-propyl)-4-hydroxy-phenyl]-ethoxy}-phenyl)-ethylamino]-methyl}-6-fluoro-phenol]	< 8.23
CC(C)N(CC[C@H](c1ccccc1)c1cc(CCOc2ccc(CCNCc3cc(F)cc(F)c3O)cc2)ccc1O)C(C)C [Example 22, 2-{[2-(4-{2-[3-((1R)-3-Diisopropylamino-1-phenyl-propyl)-4-hydroxy-phenyl]-ethoxy}-phenyl)-ethylamino]-methyl}-4,6-difluoro-phenol]	8.15

Second part, the compound after the results:

pKi	Compound
9.29	CC(C)N(CC[C@H](c1ccccc1)c1cc(CCOc2ccc(CCNC(=O)c3ccc(O)c(Cl)c3)cc2)ccc1O)C(C)C [Example 1, 3-Chloro-N-[2-(4-{2-[3-((1R)-3-diisopropylamino-1-phenyl-propyl)-4-hydroxy-phenyl]-ethoxy}-phenyl)-ethyl]-4-hydroxy-benzamide]
9.14	CC(C)N(CC[C@H](c1ccccc1)c1cc(CCOc2ccc(CCNC(=O)c3ccc(O)cc3Cl)cc2)ccc1O)C(C)C [Example 7, 2-Chloro-N-[2-(4-{2-[3-((1R)-3-diisopropylamino-1-phenyl-propyl)-4-hydroxy-phenyl]-ethoxy}-phenyl)-ethyl]-4-hydroxy-benzamide]
8.85	CC(C)N(CC[C@H](c1ccccc1)c1cc(CCOc2ccc(CCN(C)C)cc2)ccc1O)C(C)C [Example 8, 2-((1R)-3-Diisopropylamino-1-phenyl-propyl)-4-{2-[4-(2-dimethylamino-ethyl)-phenoxy]-ethyl}-phenol]
8.22	CC(C)N(CC[C@H](c1ccccc1)c1cc(CCOc2ccc(CCNC3CCCCC3)cc2)ccc1O)C(C)C [Example 11, 4-{2-[4-(2-Cyclohexylamino-ethyl)-phenoxy]-ethyl}-2-((1R)-3-diisopropylamino-1-phenyl-propyl)-phenol]
< 7.90	CC(C)N(CC[C@H](c1ccccc1)c1cc(CCOc2ccc(CCNCc3ccc(O)c(Cl)c3)cc2)ccc1O)C(C)C [Example 12, 2-chloro-4-[({2-[4-(2-{3-[(1R)-3-(diisopropylamino)-1-phenylpropyl]-4-hydroxyphenyl}ethoxy)phenyl]ethyl}amino)methyl]phenol]
8.81	CC(C)N(CC[C@H](c1ccccc1)c1cc(CCOc2ccc(CCNCc3cc(F)c(O)c(F)c3)cc2)ccc1O)C(C)C [Example 15, 4-{[2-(4-{2-[3-((1R)-3-Diisopropylamino-1-phenyl-propyl)-4-hydroxy-phenyl]-ethoxy}-phenyl)-ethylamino]-methyl}-2,6-difluoro-phenol]
< 8.24	CC(C)N(CC[C@H](c1ccccc1)c1cc(CCOc2ccc(CCNCc3cc(O)cc(O)c3)cc2)ccc1O)C(C)C [Example 21, 5-{[2-(4-{2-[3-((1R)-3-Diisopropylamino-1-phenyl-propyl)-4-hydroxy-phenyl]-ethoxy}-phenyl)-ethylamino]-methyl}-benzene-1.3-diol]
